Patent US7473822B1, “Soybean transformation and regeneration using half-seed explant” (Iowa State University Research Foundation, Inc., priority 2005, dated 2009)

Experiments:
[1] = test system: Thorne soybean half-seed explants; assay: Agrobacterium-mediated transformation and regeneration of half-seed explants from seeds soaked in BAP; conditions: for Initial Transformation Efficiency (ITE; %): ITE = no. of Liberty-resistant R0 events/no. of explants infected
Protocol: Mature Thorne soybean seeds were surface-sterilized for 16 hrs using chlorine gas, which was produced by mixing 3.5 ml of 12 N HCl with 100 ml of commercial bleach (5.25% sodium hypochloride) (Di et al., Plant Cell Rep. 15: 746-750 (1996)). […] The seeds were then split by cutting longitudinally along the hilums to separate the cotyledons, and the seed coats, primary shoots, and embryonic axes were removed, thereby generating half-seed explants. The half-seed explants were co-cultivated with A. tumefaciens for five days in the light. […]
About 50-100 half-seed explants were inoculated with 30 ml of Agrobacterium suspension culture in a 20×100 mm Petri dish at RT for 30 min. After inoculation, half-seed explants were transferred to co-cultivation medium lined with filter paper (6 explants per plate; flat side of explant in contact with filter paper) (see Table II). Co-cultivation was carried out for five days at 24° C. with 18 hr photoperiod at 140 μmoles sec^−1m^−2 light intensity.
(§1) After co-cultivation, the half-seed explants were washed in liquid shoot induction (SI) medium (see Table III). The explants were cultured on shoot induction medium solidified with 0.7% agar in the absence of selection. The base of the explant (i.e., the part of the explant from where the embryonic axis was removed) was embedded in the medium, facing upwards. […] Shoot induction was carried out in a Percival Biological Incubator at 24° C. with an 18-hr photoperiod at 140 μmoles sec^−1m^−2 light intensity. After 14 days, the explants were transferred to fresh shoot induction medium containing 6 mg/l glufosinate. After four weeks of culture on shoot induction medium, explants were transferred to shoot elongation (SE) medium containing 6 mg/l glufosinate (see Table IV). Two to four weeks later, elongated shoots (>2.5 cm) were dipped in sterile IBA (1 mg/l) and then transferred to rooting medium (see Table V) without glufosinate. After two weeks, agar medium was rinsed off of the rooted plantlets with water, and the rooted plantlets were transplanted to soil (Redi-Earth, Peat-Lite Mix, Scotts-Sierra Horticultural Products Company, Marysville, Ohio) in jiffy pots. The plant (R0) was grown at 24° C. with an 18-hr photoperiod for one-two weeks and then transferred to the greenhouse.
R0 plants with two trifoliates were screened using the herbicide paint assay to identify putative transformants that expressed the bar gene. The upper surface of a leaf was painted with 150 mg/l glufosinate (herbicide Liberty®, AgrEvo, U.S.A.) along the midrib using a cotton bud. Plants were scored based on the tolerance of the leaf tissue to glufosinate at three-five days after painting. Glufosinate-resistant R0 plants were grown in the greenhouse until maturity and seeds were harvested. Subsequently, seeds from R0 plants were sown and progeny-tested to confirm the presence of the transgene in the R1 generation by spraying two-week-old seedlings with 200 mg/l glufosinate. Plants were scored one week after spraying. Thirty-two transgenic events were confirmed in the R1 progeny by spraying with 200 mg/l glufosinate using herbicide Liberty. […] Plants were fertile and produced seed.
After five days of co-cultivation, half-seed explants infected with pTF102 were assayed for transient GUS blue expression to verify T-DNA transfer. The explants were incubated overnight in 5-bromo-4-chloro-3-indolyl glucuronide (X-gluc) solution at 37° C. (Jefferson et al., EMBO J 6: 3901-3907 (1987)). After staining, the explants were de-stained with 70% ethanol to improve contrast. The incidence of GUS activity was determined based on the presence of blue-staining areas. In addition, stable GUS expression was determined after 28 days on regeneration medium or on R0 plants. The transgenic nature of the soybean plants was also confirmed in the R0 or R1 generation by histochemical GUS assay.

[2] = test system: soybean half-seed explants; assay: Shoot induction on half-seed explants with BAP added to shoot induction medium; conditions: BAP 15-100 μM in shoot induction medium, compared to no treatment or 2.5-7.5 μM
Protocol: as §1

Compound: c1ccc(CNc2ncnc3nc[nH]c23)cc1 [BAP, 6-benzylaminopurine]
- Freq. GUS blue (on the section of explant where shoots were induced) ([1]; seeds soaked in 7.5 μM BAP): (10%)
- Freq. GUS blue (on the section of explant where shoots were induced), count ([1]; seeds soaked in 7.5 μM BAP): 1/10
- No. of Liberty-resistant R0 plants ([1]; seeds soaked in 7.5 μM BAP): 0
- Reg. Freq. (%) (regeneration frequency at first shoot induction stage) ([1]; seeds soaked in 7.5 μM BAP): (8) %
- Reg. Freq. (regeneration frequency at first shoot induction stage), explants count ([1]; seeds soaked in 7.5 μM BAP): 4/50
- Initial Transformation Efficiency (ITE; %) ([1]; seeds soaked in 7.5 μM BAP): 0.0%
- Freq. GUS blue (on the section of explant where shoots were induced) ([1]; seeds soaked in 15 μM BAP): (20%)
- Freq. GUS blue (on the section of explant where shoots were induced), count ([1]; seeds soaked in 15 μM BAP): 2/10
- No. of Liberty-resistant R0 plants ([1]; seeds soaked in 15 μM BAP): 3
- Reg. Freq. (%) (regeneration frequency at first shoot induction stage) ([1]; seeds soaked in 15 μM BAP): (48) %
- Reg. Freq. (regeneration frequency at first shoot induction stage), explants count ([1]; seeds soaked in 15 μM BAP): 24/50
- Initial Transformation Efficiency (ITE; %) ([1]; seeds soaked in 15 μM BAP): 6.0%
- Freq. GUS blue (on the section of explant where shoots were induced) ([1]; seeds soaked in 30 μM BAP): (90%)
- Freq. GUS blue (on the section of explant where shoots were induced), count ([1]; seeds soaked in 30 μM BAP): 9/10
- No. of Liberty-resistant R0 plants ([1]; seeds soaked in 30 μM BAP): 2
- Reg. Freq. (%) (regeneration frequency at first shoot induction stage) ([1]; seeds soaked in 30 μM BAP): (58) %
- Reg. Freq. (regeneration frequency at first shoot induction stage), explants count ([1]; seeds soaked in 30 μM BAP): 29/50
- Initial Transformation Efficiency (ITE; %) ([1]; seeds soaked in 30 μM BAP): 4.0%
- Freq. GUS blue (on the section of explant where shoots were induced) ([1]; seeds soaked in 50 μM BAP): (67%)
- Freq. GUS blue (on the section of explant where shoots were induced), count ([1]; seeds soaked in 50 μM BAP): 6/9
- No. of Liberty-resistant R0 plants ([1]; seeds soaked in 50 μM BAP): 0
- Reg. Freq. (%) (regeneration frequency at first shoot induction stage) ([1]; seeds soaked in 50 μM BAP): (46) %
- Reg. Freq. (regeneration frequency at first shoot induction stage), explants count ([1]; seeds soaked in 50 μM BAP): 23/50
- Initial Transformation Efficiency (ITE; %) ([1]; seeds soaked in 50 μM BAP): 0.0%
- shoot formation (regeneration frequency) [2]: enhanced shoot formation
